Numbers after ± are expanded uncertainties.
Tests used:
[1] = for surface tension liquid-gas: wilhelmi plate; for viscosity / speed of sound / mass density: 100 kPa, Liquid; for viscosity: Capillary tube (Ostwald / Ubbelohde) method; for speed of sound: Frequency=3 MHz, Sing-around technique in a fixed-path interferometer; for mass density: Vibrating tube method
[2] = xn = mol fraction of the nth substance listed; conditions: for surface tension liquid-gas: wilhelmi plate; for viscosity / speed of sound / mass density: 100 kPa, Liquid; for viscosity: Capillary tube (Ostwald / Ubbelohde) method; for speed of sound: Frequency=3 MHz, Sing-around technique in a fixed-path interferometer; for mass density: Vibrating tube method

SMILES | surface tension liquid-gas ([1]; 298.15 K) [mN/m] | viscosity ([1]; 298.15 K) [mPa·s] | speed of sound ([1]; 298.15 K) [m/s] | mass density ([1]; 298.15 K) [kg/m3] | surface tension liquid-gas ([1]; 293.15 K) [mN/m] | viscosity ([1]; 293.15 K) [mPa·s] | mass density ([1]; 293.15 K) [kg/m3] | surface tension liquid-gas ([1]; 303.15 K) [mN/m] | viscosity ([1]; 303.15 K) [mPa·s] | mass density ([1]; 303.15 K) [kg/m3] | surface tension liquid-gas ([1]; 313.15 K) [mN/m] | viscosity ([1]; 313.15 K) [mPa·s] | speed of sound ([1]; 313.15 K) [m/s] | mass density ([1]; 313.15 K) [kg/m3] | surface tension liquid-gas ([1]; 323.15 K) [mN/m] | viscosity ([1]; 323.15 K) [mPa·s] | mass density ([1]; 323.15 K) [kg/m3] | further results
CN(C)CCO [2-(N,N-dimethylamino)ethanol] | 31.3 ± 0.4 | 3.69 ± 0.42 | 1335.9 ± 2.5 | 882.8 ± 2.1 | – | – | – | – | – | – | – | – | – | – | – | – | – | –
NCCO [2-aminoethan-1-ol] | 49.1 ± 0.4 | 18.74 ± 4.7 | 1719.2 ± 1.9 | 1012 ± 2 | – | – | – | – | – | – | – | – | – | – | – | – | – | –
CN(C)CCN [2-dimethylamino-1-ethylamine] | 26.1 ± 0.4 | 0.895 ± 0.068 | 1300.8 ± 2.5 | 814.3 ± 2.1 | 26.4 ± 0.4 | 0.988 ± 0.075 | 819 ± 2 | 25.8 ± 0.4 | 0.819 ± 0.054 | 810 ± 2 | 25.2 ± 0.4 | 0.693 ± 0.045 | 1239 ± 2.5 | 801 ± 2 | 24.5 ± 0.4 | 0.596 ± 0.039 | 791 ± 2 | speed of sound ([1]; 293.15 K): 1319.6 ± 2.5 m/s; speed of sound ([1]; 303.15 K): 1279.3 ± 2.5 m/s; speed of sound ([1]; 323.15 K): 1199.3 ± 2.5 m/s
CN(C)CCN [2-dimethylamino-1-ethylamine] + NCCO | – | – | – | – | – | – | – | – | – | – | – | – | – | – | – | – | – | surface tension liquid-gas ([2]; 293.15 K, x1 = 0.5): 32.4 ± 0.4 mN/m; viscosity ([2]; 293.15 K, x1 = 0.5): 10.74 ± 0.095 mPa·s; speed of sound ([2]; 293.15 K, x1 = 0.5): 1498.1 ± 2.2 m/s; mass density ([2]; 293.15 K, x1 = 0.5): 941 ± 2 kg/m3; surface tension liquid-gas ([2]; 303.15 K, x1 = 0.5): 31.6 ± 0.4 mN/m; viscosity ([2]; 303.15 K, x1 = 0.5): 7.169 ± 0.065 mPa·s; speed of sound ([2]; 303.15 K, x1 = 0.5): 1463.7 ± 2.2 m/s; mass density ([2]; 303.15 K, x1 = 0.5): 932 ± 2 kg/m3; surface tension liquid-gas ([2]; 313.15 K, x1 = 0.5): 30.9 ± 0.4 mN/m; viscosity ([2]; 313.15 K, x1 = 0.5): 5.066 ± 0.047 mPa·s; speed of sound ([2]; 313.15 K, x1 = 0.5): 1428.9 ± 2.2 m/s; mass density ([2]; 313.15 K, x1 = 0.5): 924 ± 2 kg/m3; surface tension liquid-gas ([2]; 323.15 K, x1 = 0.5): 30.3 ± 0.4 mN/m; viscosity ([2]; 323.15 K, x1 = 0.5): 3.517 ± 0.033 mPa·s; speed of sound ([2]; 323.15 K, x1 = 0.5): 1394.1 ± 2.2 m/s; mass density ([2]; 323.15 K, x1 = 0.5): 916 ± 2 kg/m3
O [water] | 72.1 ± 0.3 | 0.891 ± 0.079 | – | – | 72.6 ± 0.3 | 0.993 ± 0.082 | 998 ± 2 | 71.1 ± 0.3 | 0.797 ± 0.063 | 996 ± 2 | 69.2 ± 0.3 | 0.654 ± 0.05 | 1529.1 ± 1.6 | 992 ± 2 | 67.7 ± 0.3 | 0.547 ± 0.043 | 988 ± 2 | –
O [water] + CN(C)CCN | – | – | – | – | – | – | – | – | – | – | – | – | – | – | – | – | – | surface tension liquid-gas ([2]; 293.15 K, x2 = 0): 72.6 ± 0.6 mN/m; viscosity ([2]; 293.15 K, x2 = 0): 0.993 ± 0.006 mPa·s; mass density ([2]; 293.15 K, x2 = 0): 998 ± 2 kg/m3; surface tension liquid-gas ([2]; 303.15 K, x2 = 0): 71.1 ± 0.6 mN/m; viscosity ([2]; 303.15 K, x2 = 0): 0.797 ± 0.005 mPa·s; mass density ([2]; 303.15 K, x2 = 0): 996 ± 2 kg/m3; surface tension liquid-gas ([2]; 313.15 K, x2 = 0): 69.2 ± 0.6 mN/m; viscosity ([2]; 313.15 K, x2 = 0): 0.654 ± 0.005 mPa·s; speed of sound ([2]; 313.15 K, x2 = 0): 1529.1 ± 1.6 m/s; mass density ([2]; 313.15 K, x2 = 0): 992 ± 2 kg/m3; surface tension liquid-gas ([2]; 323.15 K, x2 = 0): 67.7 ± 0.6 mN/m; viscosity ([2]; 323.15 K, x2 = 0): 0.547 ± 0.004 mPa·s; mass density ([2]; 323.15 K, x2 = 0): 988 ± 2 kg/m3
